Measured values reported in ChEMBL document CHEMBL5335789, “Tea-break with epigallocatechin gallate derivatives - Powerful polyphenols of great potential for medicine” (Eur J Med Chem, 2023).

Legend:
U-266 [1] = assay: Anticancer activity against human U-266 cells assessed as inhibition of cell growth; assay type: functional, cell-based
MDA-MB-231 [2] = assay: Anticancer activity against human MDA-MB-231 cells assessed as reduction in cell viability measured after 72 hrs by MTT assay; assay type: functional
NCI-H441 = assay: Antiproliferative activity against human NCI-H441 cells assessed as reduction in cell viability incubated for 48 hrs by WST-8 assay; assay type: functional, cell-based; details: NCI-H441, 48 h
A549 [3] = assay: Antiproliferative activity against human A549 cells expressing wild type EGFR assessed as reduction in cell viability incubated for 48 hrs by MTT assay; assay type: functional, cell-based; details: A549, 48 h
MDA-MB-231 [4] = assay: Cytotoxicity against human MDA-MB-231 cells assessed as reduction in cell viability measured after 24 hrs by MTT assay; details: MDA-MB-231, 24 h
U-937 [5] = assay: Antiproliferative activity against human U-937 cells assessed as cell growth inhibition measured after 72 hrs; assay type: functional, cell-based; details: U-937, 72 h
U-937 [6] = assay: Antiproliferative activity against human U-937 cells measured upto 72 hrs; assay type: functional, cell-based; details: U-937, 72 h
HCC827 = assay: Antiproliferative activity against human HCC827 cells assessed as reduction in cell viability incubated for 72 hrs by MTT assay; assay type: functional, cell-based; details: HCC827, 72 h
NSCLC = assay: Antiproliferative activity against human NSCLC cells assessed as cell growth inhibition incubated for 72 hrs by MTT assay; assay type: functional, cell-based
MDA-MB-231 [7] = assay: Cytotoxicity against human MDA-MB-231 cells assessed as cell growth inhibition incubated for 48 hrs by SRB assay; assay type: functional, cell-based; details: MDA-MB-231, 48 h
MCF7 [8] = assay: Antiproliferative activity against human MCF7 cells assessed as reduction in cell viability incubated for 72 hrs by MTT assay; assay type: functional, cell-based; details: MCF7, 72 h
SK-BR-3 [9] = assay: Antiproliferative activity against human SK-BR-3 cells assessed as inhibition of cell proliferation incubated for 3 days by sulforhodamine B colorimetric assay; assay type: functional, cell-based; details: SK-BR-3, 72 h
HCT-116 = assay: Cytotoxicity against human HCT-116 cells assessed as reduction in cell growth measured after 24 hrs by MTT assay; assay type: functional, cell-based; details: HCT-116, 24 h
PANC-1 = assay: Cytotoxicity against human PANC-1 cells assessed as reduction in cell viability measured after 24 hrs by MTT assay; assay type: functional, cell-based; details: PANC-1, 24 h
A-431 = assay: Cytotoxicity against human A-431 cells assessed as reduction in cell growth measured after 24 hrs by MTT assay; assay type: functional, cell-based; details: A-431, 24 h
SK-OV-3 = assay: Cytotoxicity against human SK-OV-3 cells assessed as reduction in cell growth measured after 24 hrs by MTT assay; assay type: functional, cell-based; details: SK-OV-3, 24 h
MCF7 [10] = assay: Cytotoxicity against human MCF7 cells assessed as reduction in cell growth incubated for 24 hrs by MTT assay; assay type: functional, cell-based; details: MCF7, 24 h
NCI-H460 = assay: Cytotoxicity against human NCI-H460 cells assessed as reduction in cell viability incubated for 24 hrs by MTT assay; assay type: functional, cell-based; details: NCI-H460, 24 h
SK-BR-3 [11] = assay: Cytotoxicity against human SK-BR-3 cells assessed as reduction in cell growth incubated for 24 hrs by MTT assay; assay type: functional, cell-based; details: SK-BR-3, 24 h
ZR-75-1 = assay: Cytotoxicity against human ZR-75-1 cells assessed as reduction in cell viability incubated for 24 hrs by MTT assay; assay type: functional, cell-based; details: ZR-75-1, 24 h
MDA-MB-231 [12] = assay: Cytotoxicity against human MDA-MB-231 cells assessed as reduction in cell viability incubated for 24 hrs by MTT assay; assay type: functional, cell-based; details: MDA-MB-231, 24 h
[13] = Inhibition of Streptococcus sobrinus glycosyl transferase
U-266 [14] = assay: Antiproliferative activity against human U-266 cells assessed as reduction in cell viability incubated for 96 hrs by ATPlite assay; assay type: functional, cell-based; details: U-266, 96 h
HL-60 = assay: Cytotoxicity against human HL-60 cells assessed as reduction in cell growth incubated for 48 hrs by MTT assay; assay type: functional, cell-based; details: HL-60, 48 h
SMMC-7721 = assay: Cytotoxicity against human SMMC-7721 cells assessed as reduction in cell viability incubated for 48 hrs by MTT assay; assay type: functional, cell-based; details: SMMC-7721, 48 h
A549 [15] = assay: Cytotoxicity against human A549 cells assessed as reduction in cell viability incubated for 48 hrs by MTT assay; assay type: functional, cell-based; details: A549, 48 h
MCF7 [16] = assay: Cytotoxicity against human MCF7 cells assessed as reduction in cell viability incubated for 48 hrs by MTT assay; assay type: functional, cell-based; details: MCF7, 48 h
BEAS-2B = assay: Cytotoxicity against human BEAS-2B assessed as reduction in cell viability incubated for 72 hrs by MTT assay; assay type: functional, cell-based

Structure (SMILES): COc1cc([C@H]2Oc3cccc(OC)c3C[C@H]2OC(=O)c2cc(O)c(O)c(O)c2)cc(O)c1O
- IC50 (U-266 [1]): 0.8 µM

Structure (SMILES): CC(=O)Oc1cc(OC(C)=O)c2c(c1)O[C@H](c1cc(OC(C)=O)c(OC(C)=O)c(OC(C)=O)c1)[C@H](OC(=O)c1cccc(F)c1)C2
- Activity (MDA-MB-231 [2]): 70%

Structure (SMILES): O=C(O[C@@H]1Cc2c(OCc3cnnn3[C@H]3O[C@H](CO)[C@@H](O)[C@H](O)[C@H]3O)cc(O)cc2O[C@@H]1c1cc(O)c(O)c(O)c1)c1cc(O)c(O)c(O)c1
- IC50 (NCI-H441): 100 µM
- IC50 (A549 [3]): 30 µM

Structure (SMILES): CC(=O)Oc1cc(OC(C)=O)c2c(c1)O[C@H](c1cc(OC(C)=O)c(OC(C)=O)c(OC(C)=O)c1)[C@H](OC(=O)c1cc(OC(C)=O)c(OC(C)OC(=O)OC(C)C)c(OC(C)=O)c1)C2 (some centres not stated)
- CC50 (MDA-MB-231 [4]): 53.9 µM

Structure (SMILES): O=C(Nc1ccccc1NC(=O)c1ccc(O)c(O)c1)c1ccc(O)c(O)c1
- IC50 (U-937 [5]): 25 µM
- IC50 (U-937 [6]): 0.72 µM

Structure (SMILES): COC(=O)c1c(O)cc2c(c1O)C[C@@H](OC(=O)c1cc(O)c(O)c(O)c1)[C@@H](c1cc(O)c(O)c(O)c1)O2
- IC50 (HCC827): ~20 µM
- IC50 (NSCLC): ~20 µM

Structure (SMILES): O=C(Oc1cc(O)cc2ccccc12)c1cc(O)c(O)c(O)c1
- IC50 (MDA-MB-231 [7]): 79 µM

Structure (SMILES): COc1cccc(C(=O)O[C@H]2COc3cc(OC)cc(OC)c3C2)c1
- IC50 (MCF7 [8]): 0.77 µM

Structure (SMILES): COc1cc(OC)c2c(c1)OC(c1ccccc1)[C@H](OC(=O)c1ccc(OC(C)=O)c(CC=C(C)C)c1)C2 (some centres not stated)
- IC50 (MCF7 [8]): 3.99 µM

Structure (SMILES): O=C(Oc1ccc(-c2ccc(OC(=O)c3cc(O)c(O)c(O)c3)cc2)cc1)c1cc(O)c(O)c(O)c1
- IC50 (SK-BR-3 [9]): 10 µM
- IC50 (HCT-116): 10 µM
- IC50 (PANC-1): 10 µM
- IC50 (A-431): 10 µM
- IC50 (SK-OV-3): 10 µM
- IC50 (MCF7 [10]): 10 µM
- IC50 (NCI-H460): 10 µM
- IC50 (SK-BR-3 [11]): 2 µM
- IC50 (ZR-75-1): 2 µM
- IC50 (MDA-MB-231 [12]): 2 µM
- IC50 (MDA-MB-231 [7]): 45 µM

Structure (SMILES): O=C(O[C@@H]1Cc2c(O)cc(O)cc2O[C@@H]1c1cc(O)c(=O)c2c(O)c(O)cc([C@H]3Oc4cc(O)cc(O)c4C[C@H]3O)c2c1)c1cc(O)c(O)c(O)c1 [THEAFLAVIN MONOGALLATES]
- IC50 [13]: 7.7 µM

Structure (SMILES): [N-]=[N+]=NC[C@@H]1O[C@H](c2c(O)cc(O)c3c2O[C@H](c2cc(O)c(O)c(O)c2)[C@H](OC(=O)c2cc(O)c(O)c(O)c2)C3)[C@H](O)[C@@H](O)[C@@H]1O
- IC50 (U-266 [14]): 15 µM

Structure (SMILES): CCOc1cccc(C(=O)O[C@H]2COc3cc(OC)cc(OC)c3C2)c1
- IC50 (MCF7 [8]): 8.19 µM

Structure (SMILES): O=c1c(O)cc([C@H]2Oc3cc(O)cc(O)c3C[C@H]2O)cc2cc(O)c(O)c(O)c12
- IC50 [13]: 14 µM

Structure (SMILES): CCCC(=O)OC[C@H]1O[C@@H](Oc2c(O)cc(C(=O)O[C@@H]3Cc4c(O)cc(O)cc4O[C@@H]3c3cc(O)c(O)c(O)c3)cc2O)[C@H](OC(=O)CCC)[C@@H](OC(=O)CCC)[C@H]1OC(=O)CCC
- IC50 (HL-60): 22.9 µM
- IC50 (SMMC-7721): 22.9 µM
- IC50 (A549 [15]): 22.9 µM
- IC50 (MCF7 [16]): 22.9 µM
- IC50 (BEAS-2B): 40 µM
